In patent US11267811B2, “Small molecule inhibitors of galectin-3” (BRISTOL-MYERS SQUIBB COMPANY, priority 2017, dated 2022):
Where two headings read alike, the source gives them in different places.

Target: His-tagged recombinant human Gal-3 (hGal-3) (Homo sapiens (Human), UniProt P17931)
Assay: Gal-3 HTRF assay (His-tagged hGal-3 binding to B-ASF);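 further: compounds preincubated 30 min with hGal-3, then 1 h with B-ASF, detection via terbium anti-His antibody and streptavidin d2. Control with B-ASF counts as full signal, omitting B-ASF as background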
[1] = HTRF, hGal-3 15 nM, B-ASF 15 nM, read-out: hGal-3 IC50

His-tagged recombinant human Gal-3 (hGal-3), sequence (P17931 whole entry): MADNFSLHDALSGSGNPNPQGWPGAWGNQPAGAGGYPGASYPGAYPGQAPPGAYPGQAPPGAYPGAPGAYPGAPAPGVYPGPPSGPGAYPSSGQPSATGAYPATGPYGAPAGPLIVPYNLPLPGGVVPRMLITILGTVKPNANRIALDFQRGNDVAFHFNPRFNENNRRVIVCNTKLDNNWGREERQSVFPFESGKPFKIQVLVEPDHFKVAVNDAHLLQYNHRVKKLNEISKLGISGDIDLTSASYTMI

Structure (SMILES) | IC50 [1] | IC50 (read-out: hGal3 IC50)
Cc1nc2ccc(-n3nc(C(C)(C)O)nc3[C@H]3C[C@@H](n4cc(-c5cc(F)c(F)c(F)c5)nn4)[C@@H](O)[C@@H](CO)O3)cc2s1 [Example 270, (2R,3R,4R,6R)-2-(hydroxymethyl)-6-(3-(2-hydroxypropan-2-yl)-1-(2-methylbenzo[d]thiazol-6-yl)-1H-1,2,4-triazol-5-yl)-4-(4-(3,4,5-trifluorophenyl)-1H-1,2,3-triazol-1-yl)tetrahydro-2H-pyran-3-ol] | 170 nM | –
CNC(=O)c1nc([C@H]2C[C@@H](n3cc(-c4cccc(F)c4)nn3)[C@@H](O)[C@@H](CO)O2)n(-c2ccc3nc(C)sc3c2)n1 [Example 271, 5-((2R,4R,5R,6R)-4-(4-(3-fluorophenyl)-1H-1,2,3-triazol-1-yl)-5-hydroxy-6-(hydroxymethyl)tetrahydro-2H-pyran-2-yl)-N-methyl-1-(2-methylbenzo[d]thiazol-6-yl)-1H-1,2,4-triazole-3-carboxamide] | 390 nM | –
Cc1nnc([C@@H]2O[C@H](CO)[C@H](O)[C@H](n3cc(-c4cc(F)c(F)c(F)c4)nn3)[C@H]2O)n1-c1cccc(Cl)c1 [Example 272, (2S,3R,4R,5R,6R)-2-(4-(3-chlorophenyl)-5-methyl-4H-1,2,4-triazol-3-yl)-6-(hydroxymethyl)-4-(4-(3,4,5-trifluorophenyl)-1H-1,2,3-triazol-1-yl)tetrahydro-2H-pyran-3,5-diol] | 70 nM | –
Cc1nc2ccc(-n3c(C)nnc3[C@@H]3O[C@H](CO)[C@H](O)[C@H](n4cc(-c5cc(F)c(F)c(F)c5)nn4)[C@H]3O)cc2s1 [Example 273, (2R,3R,4R,5R,6S)-2-(hydroxymethyl)-6-(5-methyl-4-(2-methylbenzo[d]thiazol-6-yl)-4H-1,2,4-triazol-3-yl)-4-(4-(3,4,5-trifluorophenyl)-1H-1,2,3-triazol-1-yl)tetrahydro-2H-pyran-3,5-diol] | 40 nM | –
Cc1nc2ccc(-n3c([C@@H]4O[C@H](CO)[C@H](O)[C@H](n5cc(-c6cc(F)c(F)c(F)c6)nn5)[C@H]4O)nnc3C(F)(F)F)cc2s1 [Example 274] | – | 50 nM
CCOC(=O)c1nnc([C@@H]2O[C@H](CO)[C@H](O)[C@H](n3cc(-c4cc(F)c(F)c(F)c4)nn3)[C@H]2O)n1-c1ccc2nc(C)sc2c1 [Example 275] | – | 60 nM
Cc1nc2ccc(-n3c([C@@H]4O[C@H](CO)[C@H](O)[C@H](n5cc(-c6cc(F)c(F)c(F)c6)nn5)[C@H]4O)nnc3C(C)(C)O)cc2s1 [Example 276, (2R,3R,4R,5R,6S)-2-(hydroxymethyl)-6-(5-(2-hydroxypropan-2-yl)-4-(2-methylbenzo[d]thiazol-6-yl)-4H-1,2,4-triazol-3-yl)-4-(4-(3,4,5-trifluorophenyl)-1H-1,2,3-triazol-1-yl)tetrahydro-2H-pyran-3,5-diol] | 50 nM | –
Cc1nc2ccc(-n3c(C(N)=O)nnc3[C@@H]3O[C@H](CO)[C@H](O)[C@H](n4cc(-c5cc(F)c(F)c(F)c5)nn4)[C@H]3O)cc2s1 [Example 277, 5-((2S,3R,4R,5R,6R)-3,5-dihydroxy-6-(hydroxymethyl)-4-(4-(3,4,5-trifluorophenyl)-1H-1,2,3-triazol-1-yl)tetrahydro-2H-pyran-2-yl)-4-(2-methylbenzo[d]thiazol-6-yl)-4H-1,2,4-triazole-3-carboxamide] | 40 nM | –
CSc1nnc([C@@H]2O[C@H](CO)[C@H](O)[C@H](n3cc(-c4cc(F)c(F)c(F)c4)nn3)[C@H]2O)n1-c1ccc(Cl)c(Cl)c1 [Example 278, (2S,3R,4R,5R,6R)-2-(4-(3,4-dichlorophenyl)-5-(methylthio)-4H-1,2,4-triazol-3-yl)-6-(hydroxymethyl)-4-(4-(3,4,5-trifluorophenyl)-1H-1,2,3-triazol-1-yl)tetrahydro-2H-pyran-3,5-diol] | 120 nM | –
CS(=O)(=O)c1nnc([C@@H]2O[C@H](CO)[C@H](O)[C@H](n3cc(-c4cc(F)c(F)c(F)c4)nn3)[C@H]2O)n1-c1ccc(Cl)c(Cl)c1 [Example 279, (2S,3R,4R,5R,6R)-2-(4-(3,4-dichlorophenyl)-5-(methylsulfonyl)-4H-1,2,4-triazol-3-yl)-6-(hydroxymethyl)-4-(4-(3,4,5-trifluorophenyl)-1H-1,2,3-triazol-1-yl)tetrahydro-2H-pyran-3,5-diol] | 70 nM | –
Cc1nc2ccc(-n3c(C)nnc3[C@H]3C[C@@H](n4cc(-c5cc(F)c(F)c(F)c5)nn4)[C@@H](O)[C@@H](CO)O3)cc2s1 [Example 280, (2R,3R,4R,6R)-2-(hydroxymethyl)-6-(5-methyl-4-(2-methylbenzo[d]thiazol-6-yl)-4H-1,2,4-triazol-3-yl)-4-(4-(3,4,5-trifluorophenyl)-1H-1,2,3-triazol-1-yl)tetrahydro-2H-pyran-3-ol] | 70 nM | –
Cc1nc2ccc(-n3c([C@H]4C[C@@H](n5cc(-c6cc(F)c(F)c(F)c6)nn5)[C@@H](O)[C@@H](CO)O4)nnc3C(F)(F)F)cc2s1 [Example 281, (2R,3R,4R,6R)-2-(hydroxymethyl)-6-(4-(2-methylbenzo[d]thiazol-6-yl)-5-(trifluoromethyl)-4H-1,2,4-triazol-3-yl)-4-(4-(3,4,5-trifluorophenyl)-1H-1,2,3-triazol-1-yl)tetrahydro-2H-pyran-3-ol] | 80 nM | –
CO[C@@H]1[C@@H](n2cc(-c3cc(F)c(F)c(F)c3)nn2)[C@@H](O)[C@@H](CO)O[C@H]1c1nncn1-c1ccc2nc(C)sc2c1 [Example 282, (2R,3R,4S,5R,6S)-2-(hydroxymethyl)-5-methoxy-6-(4-(2-methylbenzo[d]thiazol-6-yl)-4H-1,2,4-triazol-3-yl)-4-(4-(3,4,5-trifluorophenyl)-1H-1,2,3-triazol-1-yl)tetrahydro-2H-pyran-3-ol] | 30 nM | –
Cc1nc([C@@H]2O[C@H](CO)[C@H](O)[C@H](n3cc(-c4cc(F)c(F)c(F)c4)nn3)[C@H]2O)c(-c2cccc(Cl)c2)s1 [Example 284, (2S,3R,4R,5R,6R)-2-(5-(3-chlorophenyl)-2-methylthiazol-4-yl)-6-(hydroxymethyl)-4-(4-(3,4,5-trifluorophenyl)-1H-1,2,3-triazol-1-yl)tetrahydro-2H-pyran-3,5-diol] | 2400 nM | –
OC[C@H]1O[C@@H](c2ccnn2-c2ccc(Cl)c(Cl)c2)[C@H](O)[C@@H](n2cc(-c3cc(F)c(F)c(F)c3)nn2)[C@H]1O [Example 285, (2S,3R,4R,5R,6R)-2-(1-(3,4-dichlorophenyl)-1H-pyrazol-5-yl)-6-(hydroxymethyl)-4-(4-(3,4,5-trifluorophenyl)-1H-1,2,3-triazol-1-yl)tetrahydro-2H-pyran-3,5-diol] | 445 nM | –
Cn1ncc(-c2cccc(Cl)c2)c1[C@@H]1O[C@H](CO)[C@H](O)[C@H](n2cc(-c3cc(F)c(F)c(F)c3)nn2)[C@H]1O [Example 287, (2S,3R,4R,5R,6R)-2-(4-(3-chlorophenyl)-1-methyl-1H-pyrazol-5-yl)-6-(hydroxymethyl)-4-(4-(3,4,5-trifluorophenyl)-1H-1,2,3-triazol-1-yl)tetrahydro-2H-pyran-3,5-diol] | 10000 nM | –
OC[C@H]1O[C@@H](c2oncc2-c2ccc(Cl)c(Cl)c2)[C@H](O)[C@@H](n2cc(-c3cc(F)c(F)c(F)c3)nn2)[C@H]1O [Example 288, (2R,3R,4S,5R,6R)-2-(4-(3,4-dichlorophenyl)isoxazol-5-yl)-6-(hydroxymethyl)-4-(4-(3,4,5-trifluorophenyl)-1H-1,2,3-triazol-1-yl)tetrahydro-2H-pyran-3,5-diol] | 4000 nM | –
OC[C@H]1O[C@@H](c2nn[nH]c2-c2cccc(Cl)c2)[C@H](O)[C@@H](n2cc(-c3cc(F)c(F)c(F)c3)nn2)[C@H]1O [Example 290, (2S,3R,4R,5R,6R)-2-(5-(3-chlorophenyl)-1H-1,2,3-triazol-4-yl)-6-(hydroxymethyl)-4-(4-(3,4,5-trifluorophenyl)-1H-1,2,3-triazol-1-yl)tetrahydro-2H-pyran-3,5-diol] | 3000 nM | –
OC[C@H]1O[C@@H](n2ccc3cc(Cl)ccc32)[C@H](O)[C@@H](n2cc(-c3cc(F)c(F)c(F)c3)nn2)[C@H]1O [Example 291, (2R,3R,4S,5R,6R)-2-(5-chloro-1H-indol-1-yl)-6-(hydroxymethyl)-4-(4-(3,4,5-trifluorophenyl)-1H-1,2,3-triazol-1-yl)tetrahydro-2H-pyran-3,5-diol] | 10000 nM | –
COc1ccc([C@@H]2O[C@H](CO)[C@H](O)[C@H](n3cc(-c4cc(F)c(F)c(F)c4)nn3)[C@H]2O)cc1 [Example 292, (2R,3R,4R,5R,6S)-2-(hydroxymethyl)-6-(4-methoxyphenyl)-4-(4-(3,4,5-trifluorophenyl)-1H-1,2,3-triazol-1-yl)tetrahydro-2H-pyran-3,5-diol] | 10000 nM | –
CNC(=O)c1nnc([C@@H]2O[C@H](CO)[C@H](O)[C@H](n3cc(-c4cccc(F)c4)nn3)[C@H]2O)o1 [Example 295, 5-((2R,3R,4S,5R,6R)-4-(4-(3-fluorophenyl)-1H-1,2,3-triazol-1-yl)-3,5-dihydroxy-6-(hydroxymethyl)tetrahydro-2H-pyran-2-yl)-N-methyl-1,3,4-oxadiazole-2-carboxamide] | 14400 nM | –
O=C(NCc1ccncc1)c1nnc([C@@H]2O[C@H](CO)[C@H](O)[C@H](n3cc(-c4cccc(F)c4)nn3)[C@H]2O)o1 [Example 296, 5-((2R,3R,4S,5R,6R)-4-(4-(3-fluorophenyl)-1H-1,2,3-triazol-1-yl)-3,5-dihydroxy-6-(hydroxymethyl)tetrahydro-2H-pyran-2-yl)-N-(pyridin-4-ylmethyl)-1,3,4-oxadiazole-2-carboxamide] | 1490 nM | –
CCN(CC)CCNC(=O)c1nnc([C@@H]2O[C@H](CO)[C@H](O)[C@H](n3cc(-c4cccc(F)c4)nn3)[C@H]2O)o1 [Example 297, N-(2-(diethylamino)ethyl)-5-((2R,3R,4S,5R,6R)-4-(4-(3-fluorophenyl)-1H-1,2,3-triazol-1-yl)-3,5-dihydroxy-6-(hydroxymethyl)tetrahydro-2H-pyran-2-yl)-1,3,4-oxadiazole-2-carboxamide] | 9770 nM | –
O=C(NCc1cccnc1)c1nnc([C@@H]2O[C@H](CO)[C@H](O)[C@H](n3cc(-c4cccc(F)c4)nn3)[C@H]2O)o1 [Example 298, 5-((2R,3R,4S,5R,6R)-4-(4-(3-fluorophenyl)-1H-1,2,3-triazol-1-yl)-3,5-dihydroxy-6-(hydroxymethyl)tetrahydro-2H-pyran-2-yl)-N-(pyridin-3-ylmethyl)-1,3,4-oxadiazole-2-carboxamide] | 43600 nM | –
